From patent publication US10765114B2, “4-amino-6-(pyridyl and 2-substitutedphenyl)-picolinates and 6-amino-2-(pyridyl and 2-substitutedphenyl)-pyrimidine-4-carboxylates and their use as herbicides” (Dow AgroSciences LLC, priority 2013, dated 2020)

Tested on: Key Broadleaf Weed and Crop Species
Assay: Post-Emergent Test II (Table 5)
Type: in vivo
Conditions: Abutilon theophrasti, post-emergence, 336 h, ABUTH: velvetleaf (Abutilon theophrasti), application rate 70 (kg ai/ha; footnote: g ai/ha), read-out: Visual Growth Reduction (%) 14 Days After Application ABUTH
Outline: (§1)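 Post-emergence greenhouse spray, 1st-2nd true leaf stage; track sprayer, 187 L/ha; acetone/DMSO stock diluted in aqueous acetone/IPA/DMSO with Atplus 411F and Triton X-155; rates 1× to 1/16×; subirrigated; visual injury 0 (none) to 100% (complete kill) at 14 days.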

| Structure (SMILES) | pest or weed control at 70 g/ha |
| --- | --- |
| COC(=O)c1nc(-c2ccc(F)c(F)c2C)cc(N)c1Cl [Compound 69] | 95 to 100% |

Same assay, conditions: Abutilon theophrasti, post-emergence, 336 h, ABUTH: velvetleaf (Abutilon theophrasti), application rate 140 (kg ai/ha; footnote: g ai/ha), read-out: Visual Growth Reduction (%) 14 Days After Application ABUTH

| Structure (SMILES) | pest or weed control at 140 g/ha |
| --- | --- |
| COC(=O)c1nc(-c2ccc(F)c(F)c2C)cc(N)c1Cl [Compound 69] | 95 to 100% |

Same assay, conditions: Amaranthus retroflexus, post-emergence, 336 h, AMARE: redroot pigweed (Amaranthus retroflexus), application rate 70 (kg ai/ha; footnote: g ai/ha), read-out: Visual Growth Reduction (%) 14 Days After Application AMARE

| Structure (SMILES) | pest or weed control at 70 g/ha |
| --- | --- |
| COC(=O)c1nc(-c2ccc(F)c(F)c2C)cc(N)c1Cl [Compound 69] | 95 to 100% |

Same assay, conditions: Amaranthus retroflexus, post-emergence, 336 h, AMARE: redroot pigweed (Amaranthus retroflexus), application rate 140 (kg ai/ha; footnote: g ai/ha), read-out: Visual Growth Reduction (%) 14 Days After Application AMARE

| Structure (SMILES) | pest or weed control at 140 g/ha |
| --- | --- |
| COC(=O)c1nc(-c2ccc(F)c(F)c2C)cc(N)c1Cl [Compound 69] | 95 to 100% |

Same assay, conditions: Brassica napus, post-emergence, 336 h, BRSSS: oilseed rape, canola (Brassica napus), application rate 70 (kg ai/ha; footnote: g ai/ha), read-out: Visual Growth Reduction (%) 14 Days After Application BRSSS

| Structure (SMILES) | pest or weed control at 70 g/ha |
| --- | --- |
| COC(=O)c1nc(-c2ccc(F)c(F)c2C)cc(N)c1Cl [Compound 69] | 85 to 94% |

Same assay, conditions: Brassica napus, post-emergence, 336 h, BRSSS: oilseed rape, canola (Brassica napus), application rate 140 (kg ai/ha; footnote: g ai/ha), read-out: Visual Growth Reduction (%) 14 Days After Application BRSSS

| Structure (SMILES) | pest or weed control at 140 g/ha |
| --- | --- |
| COC(=O)c1nc(-c2ccc(F)c(F)c2C)cc(N)c1Cl [Compound 69] | 95 to 100% |

Same assay, conditions: Chenopodium album, post-emergence, 336 h, CHEAL: lambsquarters (Chenopodium album), application rate 70 (kg ai/ha; footnote: g ai/ha), read-out: Visual Growth Reduction (%) 14 Days After Application CHEAL

| Structure (SMILES) | pest or weed control at 70 g/ha |
| --- | --- |
| COC(=O)c1nc(-c2ccc(F)c(F)c2C)cc(N)c1Cl [Compound 69] | 95 to 100% |

Same assay, conditions: Chenopodium album, post-emergence, 336 h, CHEAL: lambsquarters (Chenopodium album), application rate 140 (kg ai/ha; footnote: g ai/ha), read-out: Visual Growth Reduction (%) 14 Days After Application CHEAL

| Structure (SMILES) | pest or weed control at 140 g/ha |
| --- | --- |
| COC(=O)c1nc(-c2ccc(F)c(F)c2C)cc(N)c1Cl [Compound 69] | 95 to 100% |

Same assay, conditions: Euphorbia heterophylla, post-emergence, 336 h, EPHHL: wild poinsettia (Euphorbia heterophylla), application rate 70 (kg ai/ha; footnote: g ai/ha), read-out: Visual Growth Reduction (%) 14 Days After Application EPHHL

| Structure (SMILES) | pest or weed control at 70 g/ha |
| --- | --- |
| COC(=O)c1nc(-c2ccc(F)c(F)c2C)cc(N)c1Cl [Compound 69] | 0 to 29% |

Same assay, conditions: Euphorbia heterophylla, post-emergence, 336 h, EPHHL: wild poinsettia (Euphorbia heterophylla), application rate 140 (kg ai/ha; footnote: g ai/ha), read-out: Visual Growth Reduction (%) 14 Days After Application EPHHL

| Structure (SMILES) | pest or weed control at 140 g/ha |
| --- | --- |
| COC(=O)c1nc(-c2ccc(F)c(F)c2C)cc(N)c1Cl [Compound 69] | 0 to 29% |

Same assay, conditions: Helianthus annuus, post-emergence, 336 h, HELAN: sunflower (Helianthus annuus), application rate 70 (kg ai/ha; footnote: g ai/ha), read-out: Visual Growth Reduction (%) 14 Days After Application HELAN

| Structure (SMILES) | pest or weed control at 70 g/ha |
| --- | --- |
| COC(=O)c1nc(-c2ccc(F)c(F)c2C)cc(N)c1Cl [Compound 69] | 85 to 94% |

Same assay, conditions: Helianthus annuus, post-emergence, 336 h, HELAN: sunflower (Helianthus annuus), application rate 140 (kg ai/ha; footnote: g ai/ha), read-out: Visual Growth Reduction (%) 14 Days After Application HELAN

| Structure (SMILES) | pest or weed control at 140 g/ha |
| --- | --- |
| COC(=O)c1nc(-c2ccc(F)c(F)c2C)cc(N)c1Cl [Compound 69] | 85 to 94% |

Same assay, conditions: Viola tricolor, post-emergence, 336 h, VIOTR: wild pansy (Viola tricolor), application rate 70 (kg ai/ha; footnote: g ai/ha), read-out: Visual Growth Reduction (%) 14 Days After Application VIOTR

| Structure (SMILES) | pest or weed control at 70 g/ha |
| --- | --- |
| COC(=O)c1nc(-c2ccc(F)c(F)c2C)cc(N)c1Cl [Compound 69] | 0 to 29% |

Same assay, conditions: Viola tricolor, post-emergence, 336 h, VIOTR: wild pansy (Viola tricolor), application rate 140 (kg ai/ha; footnote: g ai/ha), read-out: Visual Growth Reduction (%) 14 Days After Application VIOTR

| Structure (SMILES) | pest or weed control at 140 g/ha |
| --- | --- |
| COC(=O)c1nc(-c2ccc(F)c(F)c2C)cc(N)c1Cl [Compound 69] | 0 to 29% |

Tested on: Key Grass and Sedge Weeds as well as Grass Crops
Assay: Post-Emergent Test II (Table 6)
Type: in vivo
Conditions: post-emergence, 336 h, CYPSS, 70 g ai/ha, 14 days after application, read-out: Visual Growth Reduction (%) 14 Days After Application CYPSS
Outline: as §1

| Structure (SMILES) | pest or weed control at 70 g/ha |
| --- | --- |
| COC(=O)c1nc(-c2ccc(F)c(F)c2C)cc(N)c1Cl [Compound 69] | 45 to 59% |

Same assay, conditions: post-emergence, 336 h, CYPSS, 140 g ai/ha, 14 days after application, read-out: Visual Growth Reduction (%) 14 Days After Application CYPSS

| Structure (SMILES) | pest or weed control at 140 g/ha |
| --- | --- |
| COC(=O)c1nc(-c2ccc(F)c(F)c2C)cc(N)c1Cl [Compound 69] | 95 to 100% |

Same assay, conditions: post-emergence, 336 h, DIGSA: crabgrass (Digitaria sanguinalis), 70 g ai/ha, 14 days after application, read-out: Visual Growth Reduction (%) 14 Days After Application DIGSA

| Structure (SMILES) | pest or weed control at 70 g/ha |
| --- | --- |
| COC(=O)c1nc(-c2ccc(F)c(F)c2C)cc(N)c1Cl [Compound 69] | 0 to 29% |

Same assay, conditions: post-emergence, 336 h, DIGSA: crabgrass (Digitaria sanguinalis), 140 g ai/ha, 14 days after application, read-out: Visual Growth Reduction (%) 14 Days After Application DIGSA

| Structure (SMILES) | pest or weed control at 140 g/ha |
| --- | --- |
| COC(=O)c1nc(-c2ccc(F)c(F)c2C)cc(N)c1Cl [Compound 69] | 0 to 29% |

Same assay, conditions: post-emergence, 336 h, ECHSS, 70 g ai/ha, 14 days after application, read-out: Visual Growth Reduction (%) 14 Days After Application ECHSS

| Structure (SMILES) | pest or weed control at 70 g/ha |
| --- | --- |
| COC(=O)c1nc(-c2ccc(F)c(F)c2C)cc(N)c1Cl [Compound 69] | 0 to 29% |

Same assay, conditions: post-emergence, 336 h, ECHSS, 140 g ai/ha, 14 days after application, read-out: Visual Growth Reduction (%) 14 Days After Application ECHSS

| Structure (SMILES) | pest or weed control at 140 g/ha |
| --- | --- |
| COC(=O)c1nc(-c2ccc(F)c(F)c2C)cc(N)c1Cl [Compound 69] | 0 to 29% |

Same assay, conditions: post-emergence, 336 h, ORYSS (crop), 70 g ai/ha, 14 days after application, read-out: Visual Growth Reduction (%) 14 Days After Application ORYSS

| Structure (SMILES) | pest or weed control at 70 g/ha |
| --- | --- |
| COC(=O)c1nc(-c2ccc(F)c(F)c2C)cc(N)c1Cl [Compound 69] | 0 to 29% |

Same assay, conditions: post-emergence, 336 h, ORYSS (crop), 140 g ai/ha, 14 days after application, read-out: Visual Growth Reduction (%) 14 Days After Application ORYSS

| Structure (SMILES) | pest or weed control at 140 g/ha |
| --- | --- |
| COC(=O)c1nc(-c2ccc(F)c(F)c2C)cc(N)c1Cl [Compound 69] | 0 to 29% |

Same assay, conditions: post-emergence, 336 h, SETFA: giant foxtail (Setaria faberi), 70 g ai/ha, 14 days after application, read-out: Visual Growth Reduction (%) 14 Days After Application SETFA

| Structure (SMILES) | pest or weed control at 70 g/ha |
| --- | --- |
| COC(=O)c1nc(-c2ccc(F)c(F)c2C)cc(N)c1Cl [Compound 69] | 0 to 29% |

Same assay, conditions: post-emergence, 336 h, SETFA: giant foxtail (Setaria faberi), 140 g ai/ha, 14 days after application, read-out: Visual Growth Reduction (%) 14 Days After Application SETFA

| Structure (SMILES) | pest or weed control at 140 g/ha |
| --- | --- |
| COC(=O)c1nc(-c2ccc(F)c(F)c2C)cc(N)c1Cl [Compound 69] | 0 to 29% |

Same assay, conditions: post-emergence, 336 h, SORVU: grain sorghum (Sorghum vulgare), 70 g ai/ha, 14 days after application, read-out: Visual Growth Reduction (%) 14 Days After Application SORVU

| Structure (SMILES) | pest or weed control at 70 g/ha |
| --- | --- |
| COC(=O)c1nc(-c2ccc(F)c(F)c2C)cc(N)c1Cl [Compound 69] | 0 to 29% |

Same assay, conditions: post-emergence, 336 h, SORVU: grain sorghum (Sorghum vulgare), 140 g ai/ha, 14 days after application, read-out: Visual Growth Reduction (%) 14 Days After Application SORVU

| Structure (SMILES) | pest or weed control at 140 g/ha |
| --- | --- |
| COC(=O)c1nc(-c2ccc(F)c(F)c2C)cc(N)c1Cl [Compound 69] | 0 to 29% |

Same assay, conditions: post-emergence, 336 h, TRZSS (crop), 70 g ai/ha, 14 days after application, read-out: Visual Growth Reduction (%) 14 Days After Application TRZSS

| Structure (SMILES) | pest or weed control at 70 g/ha |
| --- | --- |
| COC(=O)c1nc(-c2ccc(F)c(F)c2C)cc(N)c1Cl [Compound 69] | 0 to 29% |

Same assay, conditions: post-emergence, 336 h, TRZSS (crop), 140 g ai/ha, 14 days after application, read-out: Visual Growth Reduction (%) 14 Days After Application TRZSS

| Structure (SMILES) | pest or weed control at 140 g/ha |
| --- | --- |
| COC(=O)c1nc(-c2ccc(F)c(F)c2C)cc(N)c1Cl [Compound 69] | 0 to 29% |

Same assay, conditions: post-emergence, 336 h, ZEAMX: maize, corn (Zea mays), 70 g ai/ha, 14 days after application, read-out: Visual Growth Reduction (%) 14 Days After Application ZEAMX

| Structure (SMILES) | pest or weed control at 70 g/ha |
| --- | --- |
| COC(=O)c1nc(-c2ccc(F)c(F)c2C)cc(N)c1Cl [Compound 69] | 0 to 29% |

Same assay, conditions: post-emergence, 336 h, ZEAMX: maize, corn (Zea mays), 140 g ai/ha, 14 days after application, read-out: Visual Growth Reduction (%) 14 Days After Application ZEAMX

| Structure (SMILES) | pest or weed control at 140 g/ha |
| --- | --- |
| COC(=O)c1nc(-c2ccc(F)c(F)c2C)cc(N)c1Cl [Compound 69] | 0 to 29% |

Tested on: not given
Assay: not given
Conditions: not given

| melting point | Structure (SMILES) |
| --- | --- |
| 120 to 126 °C | COC(=O)c1nc(-c2ccc(F)c(F)c2C)cc(N)c1Cl [Compound 69] |
